Measurements from patent US20170202844A1, “PEDIATRIC CHEWABLE TABLET CONTAINING ANTIVIRAL AGENT AND METHOD FOR THE PREPARATION THEREOF” (PHARMATHEN S.A., priority 2014, published 2017).
Where a name gives a salt, the structure may show the parent alone.

Tests used:
[1] = cited from earlier work
[2] = cited from earlier work; for oral bioavailability of acyclovir: oral administration
[3] = Drug loading into ion exchange resin, evaluated spectrophotometrically; type: physicochemical; details: for % w/w unbound drug: resin not named
Description: Mediums of different pH were examined in order to achieve the maximum drug loading into the resin. For this reason, the pH of solutions was adjusted at 3, 4, 5, 6, and 7. The drug loaded was evaluated spectrophotometrically. […] Buffer pH=7 enhanced more the effect of drug loading.
The next step was to examine the effect of drug loading into the resin for buffer pH=7 of different ion strength. For this reason, buffer pH=7 of normality 0.1N, 0.2N, 1N were prepared and the drug loaded was evaluated spectrophotometrically as before. Buffer pH=7 0.2N was the most suitable medium as the higher drug loading was reached. (61.60%±2.05%).
At this point of studies, the research focused on the type of IER. For this reason, resins of different functional group were examined to reach the higher drug loading. […] As a result, Purolite C100CaMR and Indion 204 were the most preferred resins that could form hydrogen bonds with the cationic center of Valaciclovir and prevent the release in saliva.

## CC(C)[C@H](N)C(=O)OCCOCn1cnc2c(=O)[nH]c(N)nc21 [Valaciclovir hydrochloride, L-valine, 2-[(2-amino-1,6-dihydro-6-oxo-9H-purin-9-yl)methoxy] ethyl ester, mono hydrochloride]
[1]; dichloromethane
  solubility in dichloromethane: insoluble
[1]; water
  solubility in water: soluble
[2]; after oral administration
  absorption from the gastrointestinal tract: rapidly absorbed
[2]; first-pass intestinal and/or hepatic metabolism
  conversion to acyclovir and L-valine: nearly completely converted
[3]; Buffer pH=7 0.2N
  drug loading: 61.60%±2.05%
[3]; medium pH 3
  % w/w unbound drug: 79.85%±2.19%
[3]; medium pH 4
  % w/w unbound drug: 75.24%±2.91%
[3]; medium pH 5
  % w/w unbound drug: 66.69%±2.76%
[3]; medium pH 6
  % w/w unbound drug: 61.19%±2.61%
[3]; medium pH 7
  % w/w unbound drug: 30.91%±2.53%
[3]; water
  % w/w unbound drug: 72.61%±2.81%

## CC(C)[C@H](N)C(=O)OCCOCn1cnc2c(=O)[nH]c(N)nc21 [Valaciclovir, L-valyl acyclovir]
[2]
  oral bioavailability of acyclovir: high bioavailability of acyclovir

## Nc1nc2c(ncn2COCCO)c(=O)[nH]1 [acyclovir]
[2]; in vivo
  water solubility: poorly water soluble
[2]
  oral bioavailability of acyclovir: poor oral bioavailability
